One compound from patent US20250296942A1, “Phosphonate-Based Coordination Complexes and Methods of Preparation and Use Thereof” (University of Puerto Rico, priority 2021, published 2025) can be followed below.

The series is described as follows: Release of letrozole from drug-loaded BPBPA-Ca in FaSSGF. Format: physicochemical. The method, then: (§1) LET release curve from BPBPA-Ca. The release curve of LET from BPBPA-Ca was determined in FaSSGF. About 100 mL of FaSSGF were placed in a 250-mL beaker and left in constant stirring at 37° C. (150 rpm). To record the first time point (0 h), an aliquot (1 mL) was taken out before adding the drug-loaded BPBPA-Ca. Subsequently, about 20 mg of powdered drug-loaded BPBPA-Ca (experimental) were placed into the FaSSGF solution. After each time point (0, 1, 3, 6, 24, 48, and 72 h), an aliquot (1 mL) was taken out and diluted in a 5 mL volumetric flask. Once the experiment was completed, the absorbance was measured at 238 nm to determine the amount (%) of LET release from the BPBPA-Ca. The release curve of LET (control) in FaSSGF was determined for comparison. This experiment was accomplished in duplicate.
Furthermore, the release of LET from the drug-loaded BPBPA-Ca was investigated in FaSSGF (pH=1.60) at 37° C. The LET released from BPBPA-Ca was quantified by measuring the increase in the LET concentration over time of the supernatant at the lambda max (λmax=238 nm). It was noticed that the drug-loaded BPBPA-Ca reaches a maximum release of LET ([…]) at 24 h (FIG. 91B). […] These findings confirm that BPBPA-Ca can be degraded in acidic conditions and release its cargo (LET) in a controlled and pH-dependent manner.
as §1, with “Release experiment.” for “LET release curve from BPBPA-Ca.”, “performed” for “accomplished”, “duplicate. FIG. 150 depicts the release curve of LET from the BPBPA-Ca channels.” for “duplicate.”

Each structure is given as a SMILES string.

`N#Cc1ccc(C(c2ccc(C#N)cc2)n2cncn2)cc1` [LET, letrozole]: the “LET released (mean)” value by setting is: (FaSSGF pH 1.60, 37 °C, 1 h) 65%; (FaSSGF, 3 h) 72%; (FaSSGF, 6 h) 75%; (FaSSGF, 24 h) 93%; (FaSSGF, 48 h) 94%; (FaSSGF, 72 h) 94%.
